Test results reported in patent US11572369B2, “Bicyclic pyridine compositions and methods of using the same for cancer therapy” (UNIVERSITY OF SOUTH CAROLINA, priority 2019, dated 2023).
Read-outs that look alike come from different tables or passages of the source.

Assays:
Mouse PK, intravenous = assay type: in vivo; settings: female FVB mice, i.v. 0.5 mg/kg, mixture; for AUC / C0 / Vd / half-life: mouse, serum, iv
Method: Pharmacokinetics (PK) Assay. To measure mouse pharmacokinetics (PK), thienopyridine derivatives were dissolved in 5% dextrose and administered to female FVB mice at different dosing conditions; blood samples were collected at different time points and compound concentrations in the serum were measured by LC/MS/MS.

Mouse PK, oral 1 mg/kg = assay type: in vivo; settings: female, FVB, serum, mice, oral (gavage) 1 mg/kg; for bioavailability: read-out: Bioavailability (F %)
CDK8/19 = test: NFκB Activity Assay (NFκB luciferase reporter, parental 293 cells); assay type: cell-based
[1] = test system: alkaline phosphatase (ALPase) in bone marrow stromal cell line ST2; settings: cited from earlier work; for ALP activity Assay EC200: concentration that enhances ALPase activity to 200% of control, ST2 cells, Saito (2013)
[2] = test system: NFκB activation in CDK8/19-deficient cells; test: NFκB reporter assay in CDK8/19 double-knockout 293 reporter cells; settings: CDK8/19 double-knockout reporter cells
[3] = Saito, 2013; cited from earlier work
[4] = test system: PSA expression in CRPC cell line C4-2; test: PSA expression in C4-2 cell culture supernatant; assay type: cell-based; settings: C4-2 culture supernatant, 4-day treatment, FBS-supplemented regular media, read-out: IC50, suppression of PSA expression
Excerpt: CDK8/19 inhibition decreases the expression of certain androgen-receptor (AR) inducible genes including PSA, the most common marker of prostate cancer, and the growth of castration-refractory prostate cancers (CRPC).

in vivo = settings: female, CD-1, mouse, serum, po
[5] = Oral PK in female CD-1 mice, solution formulation; settings: oral gavage in solution, 30 mg/kg (15u series) or 16/18 mg/kg (15w series)
MYC-CAP-CR cells [6] = test: Short-term cell proliferation assay, MYC-CAP-CR; assay type: cell-based, murine; settings: androgen-containing media
[7] = test system: 4T1 murine triple-negative breast cancer; test: 4T1 TNBC lung metastasis survival after primary tumor removal; assay type: in vivo, mouse; settings: medicated food (350 ppm) plus one oral dose 50 mg/kg after removal of primary tumor
MV4-11 cells = test: MV4-11-Luc proliferation assay; settings: Homo sapiens, MV4-11, read-out: Inhibition Potency MV4-11-Luc Assay
MYC-CaP-CR tumors = test: MYC-CaP-CR subcutaneous tumors in intact FVB male mice; assay type: in vivo, mouse; settings: intact (uncastrated) FVB male mice
MYC-CAP-CR cells [8] = test: Long-term clonogenic assay, MYC-CaP-CR; assay type: cell-based, murine
[9] = parental 293-derived reporter cell line, read-out: NFκB activity Assay IC50
[10] = read-out: Inhibition Potency HEK293-NFkB-Luc Assay, read-out: Inhibition Potency HEK238-NFkB-Luc Assay

NC(=O)c1sc2nccc(N3CCCN(c4ccccc4)CC3)c2c1N [15k]
Elimination rate (Mouse PK, intravenous): 4.59 h⁻¹
AUC (Mouse PK, intravenous): 0.0408 µg·h/mL
C0 (Mouse PK, intravenous): 0.168 µg/mL
Vd (Mouse PK, intravenous): 2.98 L/kg
half-life (Mouse PK, intravenous): 9 min
AUC (Mouse PK, oral 1 mg/kg): 0.0076 µg·h/mL
half-life (Mouse PK, oral 1 mg/kg): 18 min
bioavailability (Mouse PK, oral 1 mg/kg): 9%

Cc1ccc(N2CCCN(c3ccnc4sc(C(N)=O)c(N)c34)CC2)cc1 [15n]
IC50 (CDK8/19; [9]): 0.0378 µM
ALP activity Assay EC200 [1]: 88.1 nM

COc1ccc(N2CCCN(c3ccnc4sc(C(N)=O)c(N)c34)CC2)cc1 [15q]
IC50 (CDK8/19; [9]): 0.0431 µM
ALP activity Assay EC200 [1]: 115.4 nM

CNC(=O)c1ccc(N2CCCN(c3ccnc4sc(C(N)=O)c(N)c34)CC2)cc1 [15v]
Elimination rate (Mouse PK, intravenous): 4.33 h⁻¹
AUC (Mouse PK, intravenous): 0.0612 µg·h/mL
C0 (Mouse PK, intravenous): 0.234 µg/mL
Vd (Mouse PK, intravenous): 2.14 L/kg
half-life (Mouse PK, intravenous): 9.6 min
IC50 (CDK8/19; [10]): 0.0231 µM
AUC (Mouse PK, oral 1 mg/kg): 0.0218 µg·h/mL
Cmax (Mouse PK, oral 1 mg/kg): 0.0072 µg/mL
half-life (Mouse PK, oral 1 mg/kg): 72 min
bioavailability (Mouse PK, oral 1 mg/kg): 18%

CN(C)C(=O)Cc1ccc(N2CCCN(c3ccnc4sc(C(N)=O)c(N)c34)CC2)cc1 [15w, 3-amino-4-(4-(4-(2-(dimethylamino)-2-oxoethyl)phenyl)-1,4-diazepan-1-yl)thieno[2,3-b]pyridine-2-carboxamide]
effect on NFκB activation in CDK8/19-deficient cells [2]: no effect
pharmacokinetics [3]: poor pharmacokinetics (PK) with low Cmax
IC50 (CDK8/19; [10]): 0.0041 µM
AUC (Mouse PK, oral 1 mg/kg): 0.0292 µg·h/mL
half-life (Mouse PK, oral 1 mg/kg): 18 min
IC50 ([4]; 96 h): 0.0157 µM
bone anabolic activity in a cell-based assay ([1]; Saito, 2013): highest bone anabolic activity
ALP activity Assay EC200 [1]: 6.6 nM
AUC(0-t) (in vivo; 16 mg/kg): 0.4 µg·h/mL

[2H]C([2H])(C(=O)N(C)C)c1ccc(N2CCCN(c3ccnc4sc(C(N)=O)c(N)c34)CC2)cc1 [15w_D2, 3-amino-4-(4-(4-(2-(dimethylamino)-2-oxoethyl-1,1-d2)phenyl)-1,4-diazepan-1-yl)thieno[2,3-b]pyridine-2-carboxamide]
PK (AUC 0-8 h) versus undeuterated parent [5]: did not improve the PK
IC50 (CDK8/19; [10]): 0.0088 µM
AUC(0-t) (in vivo; 18 mg/kg): 0.38 µg·h/mL

[2H]C([2H])([2H])N(C(=O)Cc1ccc(N2CCCN(c3ccnc4sc(C(N)=O)c(N)c34)CC2)cc1)C([2H])([2H])[2H] [15w_D6, 3-amino-4-(4-(4-(2-(bis(methyl-d3)amino)-2-oxoethyl)phenyl)-1,4-diazepan-1-yl)thieno[2,3-b]pyridine-2-carboxamide]
PK (AUC 0-8 h) versus undeuterated parent [5]: much improved the PK
IC50 (CDK8/19; [10]): 0.0038 µM
AUC(0-t) (in vivo; 16 mg/kg): 0.77 µg·h/mL

CN1CCN(C(=O)c2ccc3cc(CCNc4ncnc5ccc(C#N)cc45)ccc3c2)CC1 [Senexin B, reference compound]
IC50 [4]: 0.255 µM
MYC-CAP-CR cell growth (MYC-CAP-CR cells [6]): little effect
mouse survival of the metastatic disease [7]: statistically significant but moderate increase in survival

NC(=O)c1sc2nccc(N3CCCN(c4ccc(C(=O)NCCCO)cc4)CC3)c2c1N [compound 6263]
IC50 (MV4-11 cells): 0.083 µM
IC50 (CDK8/19; [10]): 0.169 µM

CN(CCCO)C(=O)c1ccc(N2CCCN(c3ccnc4sc(C(N)=O)c(N)c34)CC2)cc1 [compound 6264, 3-amino-4-(4-(4-((3-hydroxypropyl)(methyl)carbamoyl)phenyl)-1,4-diazepan-1-yl)thieno[2,3-b]pyridine-2-carboxamide]
IC50 (MV4-11 cells): 0.031 µM
IC50 (CDK8/19; [10]): 0.037 µM
AUC(0-t) (in vivo; 25 mg/kg): 0.47 µg·h/mL

CN1CCN(C(=O)c2ccc(N3CCCN(c4ccnc5sc(C(N)=O)c(N)c45)CC3)cc2)CC1 [compound 6268]
IC50 (MV4-11 cells): 0.042 µM
IC50 (CDK8/19; [10]): 0.031 µM

CN(C)C(=O)c1ccc(CN2CCCN(c3ccnc4sc(C(N)=O)c(N)c34)CC2)cc1 [compound 6269]
IC50 (MV4-11 cells): 0.683 µM
IC50 (CDK8/19; [10]): 1 µM

NC(=O)c1sc2nccc(N3CCCN(c4ccc(C(=O)N5CCNCC5)cc4)CC3)c2c1N [compound 6271]
IC50 (MV4-11 cells): 0.079 µM
IC50 (CDK8/19; [10]): 0.233 µM

CN(C)C(=O)c1ccc(N2CCCN(c3ccnc4[nH]c(C(N)=O)cc34)CC2)cc1 [compound 6284]
IC50 (CDK8/19; [10]): > 1 µM

CN(CCCNC(=O)OC(C)(C)C)C(=O)c1ccc(N2CCCN(c3ccnc4sc(C(N)=O)c(N)c34)CC2)cc1 [compound 6292]
IC50 (CDK8/19; [10]): 0.594 µM

CN(CCCN)C(=O)c1ccc(N2CCCN(c3ccnc4sc(C(N)=O)c(N)c34)CC2)cc1 [compound 6293]
IC50 (CDK8/19; [10]): 0.05 µM

CN(C)C(=O)c1ccc(N2CCCN(c3ccnc4sc(C(N)=O)cc34)CC2)cc1 [compound 6296]
IC50 (CDK8/19; [10]): > 1 µM

CN(C)C(=O)c1ccc(N2CCCN(c3ccnc4sc(C#N)c(N)c34)CC2)cc1 [compound 6298]
IC50 (CDK8/19; [10]): 0.379 µM

CN1CCN(Cc2ccc(N3CCCN(c4ccnc5sc(C(N)=O)c(N)c45)CC3)cc2)CC1 [compound 6300, 3-amino-4-(4-(4-((4-methylpiperazin-1-yl)methyl)phenyl)-1,4-diazepan-1-yl)thieno[2,3-b]pyridine-2-carboxamide]
IC50 (CDK8/19; [10]): 0.0049 µM
AUC(0-t) (in vivo; 30 mg/kg): 0.21 µg·h/mL

Cc1cc(N2CCCN(c3ccc(C(=O)N(C)C)cc3)CC2)c2c(N)c(C(N)=O)sc2n1 [compound 6304, 3-amino-4-(4-(4-(dimethylcarbamoyl)phenyl)-1,4-diazepan-1-yl)-6-methylthieno[2,3-b]pyridine-2-carboxamide]
IC50 (CDK8/19; [10]): 0.0136 µM
AUC(0-t) (in vivo; 16 mg/kg): 2.2 µg·h/mL

CN(C)C(=O)c1ccc(N2CCCN(c3ccnc4[nH]c(C(N)=O)c(N)c34)CC2)cc1 [compound 6307]
IC50 (CDK8/19; [10]): > 1 µM

CN(C)C(=O)c1ccc(N2CCCN(c3ccnc4oc(C(N)=O)c(N)c34)CC2)cc1 [compound 6318]
IC50 (CDK8/19; [10]): > 1 µM

CNC(=O)c1ccc(N2C(=S)N(c3ccc(C#N)c(C(F)(F)F)c3)C(=O)C2(C)C)cc1F [enzalutamide]
MYC-CAP-CR cell growth (MYC-CAP-CR cells [6]): paradoxically stimulated the growth
tumor volume and weight (MYC-CaP-CR tumors): modest effect
MYC-CaP-CR colony formation (MYC-CAP-CR cells [8]): decreased MYC-CaP-CR colony formation
